Test results taken from US20060276393A1, “Novel compositions for preventing and treating neurodegenerative and blood coagulation disorders” (Sirtris Pharmaceuticals, Inc., priority 2005, published 2006).

Columns and labels:
[1] = system: C. elegans; test: C. elegans lifespan; format: in vivo
Method: Thus, the presence of resveratrol in the growth media of C. elegans extends their lifespan.
Bristol N2 (Caenorhabditis Genetics Center) was used as the wild-type strain. The sir-2.1 mutant strain was generated by backcrossing VC199 (sir-2.1(ok434)) to N2 four times. Cultures were grown on standard NGM media and maintained on E. coli strain OP50. For the lifespan assays, synchronized animals were transferred to treatment plates as young adults (2 d after hatching, day 0 of assay), and were transferred to fresh treatment plates every 2 days for the first 6 to 8 days of the assay. […] For some lifespan trials, heat-killed OP50 were used as a food source. OP50 cultures were heated to 65° C. for 30 minutes, then pelleted and resuspended in 1/10 volume in S Basal supplemented with 10 mM MgSO4. In all assays, worms were monitored daily for mortality by gently probing with a platinum pick. Assays were performed at 24° C. To assay worm feeding rates, worms at the indicated stages were placed on treatment plates (no FUdR) for 4-5 hours, then videoed for 1 minute using a Pixelink PL-662 camera. The frame rate was slowed and the pumping rate of the pharynx was counted. To assay fecundity, gravid hermaphrodites (5 per plate, raised from synchronized L1s on normal or treatment plates) were allowed to lay eggs on their respective media for 5 hours, and the total number of eggs was counted.

[2] = target: T1, SIRT1 deacetylase (BIOMOL) (Homo sapiens, UniProt Q96EB6); test: High-throughput SIRT1 screening protocol (ICCB library); format: biochemical; conditions: positive controls; 200 μM NAD+, 5 μM Fluor de Lys-SIRT1; resveratrol 50 μM
T1 construct: purchased BIOMOL
T1 sequence (Q96EB6 1-747): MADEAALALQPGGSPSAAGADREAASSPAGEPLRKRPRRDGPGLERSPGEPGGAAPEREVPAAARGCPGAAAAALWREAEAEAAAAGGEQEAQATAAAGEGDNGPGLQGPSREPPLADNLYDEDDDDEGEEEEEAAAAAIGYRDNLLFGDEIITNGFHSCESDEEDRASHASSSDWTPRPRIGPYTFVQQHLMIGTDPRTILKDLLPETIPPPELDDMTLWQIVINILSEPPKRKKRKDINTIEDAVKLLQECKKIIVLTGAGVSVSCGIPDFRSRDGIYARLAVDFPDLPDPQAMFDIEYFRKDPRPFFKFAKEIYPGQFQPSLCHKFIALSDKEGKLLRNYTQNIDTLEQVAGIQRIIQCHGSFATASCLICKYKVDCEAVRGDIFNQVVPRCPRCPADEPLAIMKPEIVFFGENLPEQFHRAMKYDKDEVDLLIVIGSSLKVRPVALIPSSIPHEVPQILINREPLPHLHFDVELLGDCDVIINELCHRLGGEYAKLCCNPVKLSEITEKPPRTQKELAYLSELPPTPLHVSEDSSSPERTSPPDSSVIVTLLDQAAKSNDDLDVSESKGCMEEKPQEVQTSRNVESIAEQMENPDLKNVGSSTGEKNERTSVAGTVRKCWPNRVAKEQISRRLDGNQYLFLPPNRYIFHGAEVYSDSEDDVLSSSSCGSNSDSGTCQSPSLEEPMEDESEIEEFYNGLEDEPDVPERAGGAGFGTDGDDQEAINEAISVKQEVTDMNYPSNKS
Method: The reaction mixture contains (final): 0.5 units/reaction SIRT1 deacetylase (BIOMOL); 200 μM NAD^+; 5 μM Fluor de Lys-SIRT1 substrate (BIOMOL); buffer (25 mM Tris/Cl, pH 8.0, 137 mM NaCl, 2.7 mM KCl, 1 mM MgCl2, and 1 mg/ml BSA). In addition, a reaction mixture containing no enzyme was made so that each well receiving compound has a corresponding “no enzyme control” well. Reactions were performed in black 384 well plates (NUNC) in a final volume of 25 μl/well.
The reactions were started by combining enzyme and substrate in a reaction mixture immediately prior to aliquoting in plates (or substrate only for “no enzyme control” plates). Mixture were aliquoted to plates using Biotek μfill (Biotek Instruments). Control mixtures were manually added to designated wells. A library compound was added at a desired concentration by pin transfer to both “with enzyme” and “no enzyme” plates. Compounds were added in at least triplicate (with enzyme reaction in duplicate and no enzyme controls) at a final concentration of roughly 50 μM. The plates were incubated at 37° C for 30-60 minutes. Then 25 μl of 1× Developer II (BIOMOL) plus 2 mM nicotinamide were added to all wells to stop the reactions. The reactions were left for at least 30 minutes at 37° C. for the signal to develop. The plates were read in a microplate-reading fluorometer capable of excitation at a wavelength in the range of 350-380 nm and detection of emitted light in the range of 440-460 nm. A read time of 0.1 sec per well was used.

[3] = target: T2, Human recombinant SIRT2 (Homo sapiens, UniProt Q8IXJ6); test: SIRT2 deacetylation assay; format: biochemical; conditions: increasing resveratrol; 25 μM Fluor de Lys-SIRT2, 25 μM NAD+, 20 min 37° C.
T2 sequence (Q8IXJ6 1-389): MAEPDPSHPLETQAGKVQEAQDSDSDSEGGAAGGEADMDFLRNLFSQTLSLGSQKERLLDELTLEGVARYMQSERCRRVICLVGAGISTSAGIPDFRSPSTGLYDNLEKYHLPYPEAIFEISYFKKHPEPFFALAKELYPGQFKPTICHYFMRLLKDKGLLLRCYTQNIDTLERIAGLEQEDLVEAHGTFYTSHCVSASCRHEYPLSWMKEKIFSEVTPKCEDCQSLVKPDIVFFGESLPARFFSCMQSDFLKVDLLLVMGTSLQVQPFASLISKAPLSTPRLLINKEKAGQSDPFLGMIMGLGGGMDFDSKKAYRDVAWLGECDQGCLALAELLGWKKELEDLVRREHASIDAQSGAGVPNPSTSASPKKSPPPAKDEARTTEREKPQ
Description: Yeast Sir2 and human SIRT1 are very homologous and differ from human SIRT2 by the addition of an N-terminal domain that is absent in SIRT2. […] Thus, based on the difference in structure of SIRT1 and SIRT2, i.e., the absence of an N-terminal domain (see FIG. 8), it is believed that the N-terminal domain of SIRT1 and Sir2 is necessary for activation by the compounds described herein. In particular, it is likely that the activator compounds described herein interact with the N-terminal portion of sirtuins. The N-terminal portion of SIRT1 that is necessary for the action of the compounds is from about amino acid 1 to about amino acid 176, and that of Sir2 is from about amino acid 1 to about amino acid 175.

## Oc1ccc(/C=C/c2cc(O)cc(O)c2)cc1 [Resveratrol, 3,5,4′-Trihydroxy-trans-stilbene]
[1]; 50 worms strain N2, 100 μM, control 5 alive
  worms alive on day 17: 17 worms
[1]; sir-2.1 mutants, 100 μM, heat-killed OP50, not statistically significant
  lifespan extension: 5.2%
[1]; sir-2.1 mutants, 100 μM, live OP50, P=0.81
  lifespan extension: 3.3%
[1]; wild-type N2, 100 μM, live OP50
  lifespan extension: 12.6%
[1]; wild-type worms, 100 μM, heat-killed or live E. coli
  lifespan extended (maximum): up to 15%
[2]
  activated SIRT1: 2.2 fold
[3]
  SIRT2 activity: decrease SIRT2 activity
